{"source": "patent US20230233634A1", "about": "“PROCYANIDINS FOR THE TREATMENT OF ENDOTHELIAL DYSFUNCTION TRIGGERED BY COVID-19” (priority 2020, published 2023)", "origin": "cited, not measured here", "test_system": "iNOS (inducible nitric oxide synthase)", "details": "direct anti-inflammatory activity", "data": [{"compound": "O=C1CCC(Cc2ccc(O)c(O)c2)O1", "note": "(stereo not shown) [M1, δ-(3,4-dihydroxy-phenyl)-γ-valerolactone]", "values": [{"measurement": "iNOS expression and nitrite production", "value": "reducing iNOS (inducible nitric oxide synthase) expression and excessive nitrite production"}]}]}
